The text below walks through data of paper PMC6138237, “Machine intelligence decrypts β-lapachone as an allosteric 5-lipoxygenase inhibitor” (Chemical Science, 2018).

The test deals with T1, EP3 (Homo sapiens, UniProt P43115).
T1 sequence (P43115 1-390): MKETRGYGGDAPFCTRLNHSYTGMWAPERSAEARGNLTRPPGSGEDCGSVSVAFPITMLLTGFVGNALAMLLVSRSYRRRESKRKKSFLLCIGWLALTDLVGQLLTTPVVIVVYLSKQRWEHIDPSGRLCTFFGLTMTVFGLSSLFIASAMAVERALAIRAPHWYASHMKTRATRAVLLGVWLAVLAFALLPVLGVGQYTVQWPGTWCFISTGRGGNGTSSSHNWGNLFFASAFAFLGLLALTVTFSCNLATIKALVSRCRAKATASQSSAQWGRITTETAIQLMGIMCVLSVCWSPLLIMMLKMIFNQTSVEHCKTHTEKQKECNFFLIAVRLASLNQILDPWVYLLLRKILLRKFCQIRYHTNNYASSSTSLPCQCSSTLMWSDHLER
Nature of the test: EP3 functional agonist assay, Cerep (impedance).

SMILES strings stand for the structures. Where two headings read alike, the source gives them in different places.

With `CC1(C)CCC2=C(O1)c1ccccc1C(=O)C2=O` [β-Lapachone], the remaining activity at 150 µM is, setting by setting: (read-out: % of control values, 1st measurement) 18.6%; (read-out: % of control values, 2nd measurement) 15.5%; (read-out: % of control values, Mean) 17%.
